Assay results taken from patent US20240000724A1, “Compositions and Methods for Treatment or Prevention of Oral Mucositis” (PATHWAYS BIOSCIENCE, LLC, priority 2015, published 2024).

Assays:
[1] = test system: Nrf2 (HepG2-ARE promoter/reporter cells); experiment: HepG2-ARE promoter/reporter cells, Nrf2 activation (chemiluminescent signal, RLU); format: cell-based, human; conditions: for Nrf2 activation level: 4.2 ug/mL, unstimulated baseline 7182 RLU; for Nrf2 activation (chemiluminescent signal, RLU): HepG2-ARE cells
Experimental: In this example, approaches were used to increase the aqueous distribution of the otherwise relatively insoluble 1,3-diphenyl-1,3-propanedione (DBM) by adding 2-hydroxypropyl beta-cyclodextrin (HPBCD) at a molar ratio (DBM:HPBCD) of 1:3. […] To verify its presence in the aqueous solutions, the samples were tested for activity of PB201 using HepG2-ARE promoter/reporter cells, which are responsive to PB201 and other Nrf2-activators by promoting the expression of luciferase.
Furthermore, the Nrf2 activation by the 1,3-diphenyl-1,3-propanedione, with or without solubility enhancing agents such as HPBCD, is temporary, not permanent, and can be repeated; for example the Nrf2 activation by 4.2 ug/mL 1,3-diphenyl-1,3-propanedione decreases from its level at 17 hours (72,949 RLU) to 24 hours (47,121 RLU) after stimulation, and is nearly back to its baseline, unstimulated levels (7182 RLU) by 48 hours (11,659 RLU). Similarly, other types of agents can be utilized to increase aqueous levels of 1,3-diphenyl-1,3-propanedione including, but not limited to, surfactants, liposomes, amphiphiles, emulsifiers, and complexing agents to make solutions or suspensions.

[2] = test system: Nrf2 signaling pathway (HepG2 cells); experiment: Short exposure time course of Nrf2 activation in HepG2 Nrf2-driven promoter luciferase reporter cells; format: cell-based, human; conditions: 5 minutes exposure, washed off, read 24 hours later; compared with 1 or 2 hours exposure
Experimental: As an example of the short time course of PB201 exposure needed to activate the Nrf2 signaling pathway, HepG2 cells stably transfected with a Nrf2-driven promoter, luciferase reporter construct were treated with PB201 for 5 minutes, 1 hour, or 2 hours, then the PB201 was removed and washed off the cells, then 24 hours later the luciferase levels were measured by chemiluminescence to assay for Nrf2 activation.

[3] = test system: radiation-induced oral mucositis (cheek pouch ulceration); experiment: Radiation-induced oral mucositis in hamster cheek pouch; format: in vivo, Syrian Golden Hamsters; conditions: 40 Gy day 0; topical cheek pouch 1 to 10 μg PB201 3×/day days 0 to 28; scored days 6 to 28
Experimental: In this example, a single dose of radiation (40 Gy) was given on day 0 to the isolated cheek pouch and PB201 treatment was given by topical cheek pouch administration of 1 to 10 μg PB201 given three times daily from days 0 to 28 as 0.2 mL of 5 μg/mL given 3×/day or 0.2 mL of 50 μg/mL given 3×/day, and oral mucositis was determined as cheek pouch ulceration, scored every 2 days from days 6 to 28. Mucositis was scored visually by comparison to a validated photographic scale, ranging from 0 (normal) to 5 (severe ulceration). In descriptive terms, this scale is defined as follows.
A score of 1-2 is considered to represent a mild stage of the disease, whereas a score of 3-5 is considered to indicate moderate to severe mucositis.

With O=C(CC(=O)c1ccccc1)c1ccccc1 [PB201, 1,3-diphenyl-1,3-propanedione] the Nrf2 activation level ([1]; 17 hours after stimulation) was 72,949 RLU, the Nrf2 activation level ([1]; 48 hours after stimulation) was 11,659 RLU and the “Nrf2 activation (chemiluminescent signal, RLU)” value ([1]; PB201 in HPBCD/PBS) was “activated”. For the same molecule, the “Nrf2 activation (chemiluminescent signal, RLU)” value ([1]; PB201 in PBS alone) was “not by PB201 in PBS alone”, the “Nrf2 response (luciferase chemiluminescence)” value [2] was “strong Nrf2 response similar to 1 or 2 hours of exposure” and the “Protection against oral mucositis (cheek pouch ulceration score 0-5)” value [3] was “protected against the oral mucositis”.
